Test results as given in patent US20190167724A1, “NEUROPROTECTIVE COMPOSITION, PREPARATION PROCESS THEREOF AND MEDICAL USES THEREOF” (priority 2017, published 2019).
Marks after values point to notes of the source that are not given here.

Tested on: 6-OHDA induced Parkinson's Disease-like Zebrafish Larvae Model
Experiment: Anti-Parkinson's Disease efficacy test in 6-OHDA zebrafish larvae model
Format: in vivo
Details: soaking at 1.5 μg/mL, co-treated with 6-OHDA

CN1Cc2c(N)cccc2C(c2ccccc2)C1 (centres unmarked) [Nomifensine]
Anti-Parkinson's Disease Efficacy (Motility Increase Rate): 40.9%* | Total Distance (mm) (Mean ± SE) (30 minutes, n = 10): 2738 ± 165 mm
